The text below walks through data of patent US11865110B2, “Thrombin inhibitors, formulations, and uses thereof” (VERSEON INTERNATIONAL CORPORATION, priority 2018, dated 2024).

The structures appear in SMILES notation.

A short description of one data set: Mouse plasma stability. The class given is in vitro ADME, mouse (CD-1). Particulars: CD-1 mouse plasma, 37° C., time points to 160 min; read-out: Mouse Plasma Stability t1/2. The procedure: Alongside a positive control of propantheline bromide, 8 μL of a 1 mM solution of each test compound in DMSO was placed in two wells of a Nunc™ 96-well plate called the “dilution plate.” To one well, 392 μL of HyClone™ water was added and mixed by a pipette. To the other well, 392 μL of mouse or rat plasma stabilized with sodium citrate purchased from Innovative Research was added and mixed by a pipette. The dilution plate was kept covered to reduce solvent evaporation and heated in an incubator at 37° C. At each of the time points enumerated below, the plate was removed from the incubator and 50 μL of the test compound/water or test compound/plasma solutions were transferred to a unique, corresponding well in a “quench plate” (96-well Costar® plate) that contains 150 μL of a quench solution that contains an internal standard (20 uM diclofenac in acetonitrile). The dilution plate was then returned to the incubator. This process was performed at 0, 5, 10, 20, 40, 80, and 160 minutes from the original mixing of the test compounds with the water or plasma in the dilution plate. After the quenching of the 160-minute time point, the quench plate was then centrifuged at 4° C. at 1000×g for 10 minutes. 100 μL of the supernatant of each well were then transferred to corresponding unique wells in a “read plate” (96-well Costar® plate) that were filled with 100 μL of HyClone™ water. The plate was then sealed and analyzed via UHPLC using a 10-μL sample injection through a Phenomenex® Kinetex column pre-equilibrated with the loading buffer (95:5 water:acetonitrile). The parameters were as follows. Mobile Phase A: water, 0.025% formic acid. Mobile Phase B: acetonitrile, 0.025% formic acid. Flow Rate: 0.5 mL/min. […] Half-life (t1/2) times were computed by using a chi-square analysis to fit the peak areas to an exponential decay model for compound concentration as a function of time.

Data set [1] is described as follows: Mouse liver microsome stability. The class given is in vitro ADME, mouse (CD-1). Particulars: pH 7.4; CD-1 mouse liver microsomes 0.5 mg/mL, NADPH, 37° C.; lower measurable bound 5. The procedure:
In a 96-well Nunc™ plate, 1.5 μL of a 200 μM solution of the test compound in DMSO were placed in a well. This plate, the “Reaction Plate,” was then warmed to 37° C. in an oven. In a second 96-well Nunc™ plate, the “Quench Plate,” six wells were filled with 180 μL of an internal standard quench solution composed of 100 nM diclofenac in acetonitrile. These six wells correspond to the six time points for data collection: 0, 0.5, 5, 15, 30, and 60 minutes. “Assay Buffer” was prepared by combining 6.96 g potassium phosphate, dibasic, 1.36 g potassium phosphate, monobasic, and 0.30 g of magnesium chloride hexahydrate, then diluting to a final concentration of 500 mL in water and adjusting to pH 7.4, as needed. Assay Buffer was warmed to 37° C., and 12 mL were added to a 10-mg vial of NADPH. Then 300 μL of a 20 mg/mL liver microsome suspension were added to yield a 0.5 mg/mL liver microsome suspension. 300 μL of this liver microsome suspension was then added to the test compound solution in the Reaction Plate and mixed thoroughly with a pipette tip. At each time point, 30 μL of this mixture was transferred to the corresponding well of the Quench Plate. In between time points, the Reaction Plate was kept sealed and warmed in an incubator at 37° C. When the last time point had been completed, the quench plate was centrifuged at 4° C. at 1000×g for 10 minutes. Afterwards, 50 μL of the supernatant of each well was transferred to unique, corresponding wells of a 96-well Costar® plate, the “Analysis Plate,” filled with 150 μL of 50:50 acetonitrile:HyClone™ water. The Analysis Plate was then sealed with a pre-slit plate seal before analysis via an appropriate LCMS method with a 10 μL injection. The abstracted AUC data were then automatically plotted to calculate intrinsic clearance in μL/min/mg. This experiment was run alongside a positive and negative control. Due to the parameters of this procedure, one of skill in the art will appreciate that this assay has a lower measurable bound of 5 μL/min/mg; therefore, certain compounds have their clearances labeled as ≤5 μL/min/mg.
A general note: Liver microsomes are vesicles of endoplasmic reticulum, rich in cytochrome P450 enzymes.

For another data set, the target named is T1, thrombin (Homo sapiens, UniProt P00734).
T1 construct: from tissue; host or cells: human plasma (thrombin generated in situ by tissue factor, phospholipids and CaCl2)
In words: Human Thrombin Generation Assay (TGA). The conditions noted are these: concentration that reduces endogenous thrombin potential AUC by 50%; human plasma; read-out: ETP EC50. The class given is biochemical. The procedure: Results for the human thrombin generation assay (TGA; not to be confused with “thermogravimetric analysis” which is used elsewhere and carries the same acronym. One of skill in the art will appreciate which meaning is intended based on context of the surrounding technical information.) were generated as follows. In a 96-well plate, 4 μL of 100, 33.3, 11.1, 3.7, 1.23, 0.41, 0.137, and 0.046 μM solutions of the test compounds in DMSO were added to sequential wells filled with 68 μL of a “TGA Working Solution.” See description of this solution as well as other relevant solutions below. The plate was incubated at room temperature for 10 minutes, whereupon 8 μL of warm “Substrate Solution” was added to each well, resulting in a 500 μM concentration of the substrate, Z-GGR-AMC (Z-Gly-Gly-Arg-7-amino-4-methylcoumarin·HCl), in each well. Fluorescence intensity data (Ex/Em 380/460 nm) collection began immediately using a Cytation™ or Synergy™ H1 96-well plate reader set to incubate the plate at 37° C. over the data collection time of 90 minutes following double-orbital shaking for a period of 4 seconds. Test compounds were measured parallel to blanks and controls, as well as to wells of the substrate in DMSO at various concentrations (2.50, 0.833, 0.278, 0.093 mM) in the buffers to generate a standard fluorescence curve. Data values were computed automatically, including the ETP EC50 value of the AUC, which is the concentration of the compound that reduces endogenous thrombin potential AUC by 50%.
The various solutions were prepared as follows. A HEPES/NaCl Assay buffer was made by combining 7.5 mL of 5M NaCl, 1.19 g 4-(2-hydroxyethyl)piperazine-1-ethanesulfonic acid (HEPES) and 230 mL of water. An “Innovin Master Solution” was made by combining 20 μL of Siemens Dade Innovin recombinant tissue factor and thromboplastin with 50 μL of 0.5 mM phospholipid-TGT acquired from DiaPharma® in 450 μL of the above HEPES/NaCl Assay buffer. This solution was then vortexed for a few seconds. Next the “Substrate Master Solution” was made by adding 3.2 mL DMSO to 100 mg of Z-GGR-AMC (Z-Gly-Gly-Arg-7-amino-4-methylcoumarin·HCl) and vortexing in a polystyrene tube. This solution was stored at −20° C. A “TGA Working Solution” was prepared by adding 6.2 mL of human plasma, 50 μL of the Innovin Master Solution, and 80 μL of phospholipids to 2.6 mL of HEPES/NaCl Assay buffer. A “Substrate Working Solution” was made immediately before addition to the assay plate by adding 200 μL of the above “Substrate Master Solution” to a pre-warmed (37° C.) mixture of 1.46 mL of HEPES/NaCl Assay buffer and 340 μL of 1M CaCl2).
For additional description of this assay, please see Robert, S. et al. ‘Is thrombin generation the new rapid, reliable and relevant pharmacological tool for the development of anticoagulant drugs?’2009, Pharmacol Res 59:160-6 as well as Hemker, H. C. et al. ‘Calibrated automated thrombin generation measurement in clotting plasma.’ 2003, Pathophysiol Haemost Thromb 33:4-15.

Another data set concerns malignant breast tumors. The conditions noted are these: treated mice, cited from earlier work.

In the case of `CC(C)(C)C(=O)n1nc(-c2cccn(CC(F)(F)C(=O)O)c2=O)cc1NCc1ccc(Cl)s1` [Compound 6, 3-[3-(5-{[(5-chlorothiophen-2-yl)methyl]amino}-1-(2,2-dimethylpropanoyl)-1H-pyrazol-3-yl)-2-oxo-1,2-dihydropyridin-1-yl]-2,2-difluoropropanoic acid], the half-life at 20 µM in “Mouse plasma stability” worked out at 0.117 h. In data set [1], this compound had a microsomal CLint at 1 µM of 9 µL/min/mg. Also, at thrombin, the EC50 was 5.4 µM.
The corresponding values for `COCCn1cccc(-c2cc(NCc3ccc(Cl)s3)n(C(=O)C(C)(C)C)n2)c1=O` [Compound 7, 3-(5-{[(5-chlorothiophen-2-yl)methyl]amino}-1-(2,2-dimethylpropanoyl)-1H-pyrazol-3-yl)-1-(2-methoxyethyl)-1,2-dihydropyridin-2-one] are ≥ 5 h, 290 µL/min/mg and 0.85 to 0.97 µM.
For `CC(C)(CO)C(=O)n1nc(-c2cccn(CCC(=O)O)c2=O)cc1NCc1ccc(Cl)s1` [Compound 10, 3-[3-(5-{[(5-chlorothiophen-2-yl)methyl]amino}-1-(3-hydroxy-2,2-dimethylpropanoyl)-1H-pyrazol-3-yl)-2-oxo-1,2-dihydropyridin-1-yl]propanoic acid], in “Mouse plasma stability”, the half-life at 20 µM came to 1.17 h. The microsomal CLint at 1 µM in data set [1] came to 4 µL/min/mg. Besides, on thrombin, the EC50 was in the range of 1.7 to 10 µM.
As to `CCOC(=O)CCn1cccc(-c2cc(NCc3ccc(Cl)s3)n(C(=O)C(C)(C)C)n2)c1=O` [Compound 15, ethyl 3-[3-(5-{[(5-chlorothiophen-2-yl)methyl]amino}-1-(2,2-dimethylpropanoyl)-1H-pyrazol-3-yl)-2-oxo-1,2-dihydropyridin-1-yl]propanoate], the EC50 at thrombin came out at 2.9 µM.
As to `C=CCOC(=O)CCn1cccc(-c2cc(NCc3ccc(Cl)s3)n(C(=O)C(C)(C)C)n2)c1=O` [Compound 16, prop-2-en-1-yl 3-[3-(5-{[(5-chlorothiophen-2-yl)methyl]amino}-1-(2,2-dimethylpropanoyl)-1H-pyrazol-3-yl)-2-oxo-1,2-dihydropyridin-1-yl]propanoate], the EC50 at thrombin is 1.9 µM.
The same measure, in the same setting: in the case of `CC(=O)OCCOC(=O)CCn1cccc(-c2cc(NCc3ccc(Cl)s3)n(C(=O)C(C)(C)C)n2)c1=O` [Compound 17, 2-(acetyloxy)ethyl 3-[3-(5-{[(5-chlorothiophen-2-yl)methyl]amino}-1-(2,2-dimethylpropanoyl)-1H-pyrazol-3-yl)-2-oxo-1,2-dihydropyridin-1-yl]propanoate] it was 1.2 µM; in that of `CC(=O)OC(C)OC(=O)CCn1cccc(-c2cc(NCc3ccc(Cl)s3)n(C(=O)C(C)(C)C)n2)c1=O` (stereo not shown) [Compound 18, 1-(acetyloxy)ethyl 3-[3-(5-{[(5-chlorothiophen-2-yl)methyl]amino}-1-(2,2-dimethylpropanoyl)-1H-pyrazol-3-yl)-2-oxo-1,2-dihydropyridin-1-yl]propanoate], 1.3 µM.
With `Cc1nc(C)c(COC(=O)CCn2cccc(-c3cc(NCc4ccc(Cl)s4)n(C(=O)C(C)(C)C)n3)c2=O)nc1C` [Compound 20, (3,5,6-trimethylpyrazin-2-yl)methyl 3-[3-(5-{[(5-chlorothiophen-2-yl)methyl]amino}-1-(2,2-dimethylpropanoyl)-1H-pyrazol-3-yl)-2-oxo-1,2-dihydropyridin-1-yl]propanoate], the EC50 on thrombin worked out at 2.4 µM.
On the same count and under the same terms, for `CC(C)[C@H](NC(=O)OC(C)(C)C)C(=O)OCOC(=O)CCn1cccc(-c2cc(NCc3ccc(Cl)s3)n(C(=O)C(C)(C)C)n2)c1=O` [Compound 21, ({3-[3-(5-{[(5-chlorothiophen-2-yl)methyl]amino}-1-(2,2-dimethylpropanoyl)-1H-pyrazol-3-yl)-2-oxo-1,2-dihydropyridin-1-yl]propanoyl}oxy)methyl (2S)-2-{[(tert-butoxy)carbonyl]amino}-3-methylbutanoate] the value was 4.8 µM; for `[2H]C([2H])(C(=O)O)C([2H])([2H])n1cccc(-c2cc(NCc3ccc(Cl)s3)n(C(=O)C(C)(C)C)n2)c1=O` [Compound 22, 3-[3-(5-{[(5-chlorothiophen-2-yl)methyl]amino}-1-(2,2-dimethylpropanoyl)-1H-pyrazol-3-yl)-2-oxo-1,2-dihydropyridin-1-yl](2H4)propanoic acid], 1.9 µM.
Still for that read-out and setting: in the case of `[2H]C([2H])(Nc1cc(-c2cccn(CCC(=O)O)c2=O)nn1C(=O)C(C)(C)C)c1ccc(Cl)s1` [Compound 24, 3-[3-(5-{[(5-chlorothiophen-2-yl)(2H2)methyl]amino}-1-(2,2-dimethylpropanoyl)-1H-pyrazol-3-yl)-2-oxo-1,2-dihydropyridin-1-yl]propanoic acid] it was 2.4 µM.
On to `CCCCCCOC(=O)N=C(N)c1ccc(NCc2nc3cc(C(=O)N(CCC(=O)OCC)c4ccccn4)ccc3n2C)cc1` [dabigatran etexilate], for which the “reduction in tumor volume” value with malignant breast tumors (at 4 weeks) is reported as 50%. In the data set with malignant breast tumors, the “reduction of tumor cells in the blood and liver micrometastases” value is 50-60%.

A word on the microsomal CLint: it is the capacity of the preparation to metabolise the compound, expressed as a volume cleared per time. Read a high microsomal CLint as faster metabolism. What is called EC50 is the concentration that produces a half-maximal response.
